Data taken from patent publication US10457679B2, “Imidazo[4,5-c]quinolin-2-one compounds and their use in treating cancer” (AstraZeneca AB, priority 2015, dated 2019).
Where two headings read alike, the source gives them in different places.

Columns and labels:
Format in all cases: cell-based
ATM kinase = biological target: T1, ATM kinase (Homo sapiens, UniProt Q13315); assay: Assay a) ATM cellular potency (pATM Ser1981 in X-ray irradiated HT29 cells); conditions: HT29 cells, 1 h compound, X-ray ~600 cGy, pATM Ser1981; may be geometric mean of several tests; read-out: Assay a) ATM Cell IC50
T1 construct: endogenous in cells; host or cells: HT29 cells (ECACC #85061109)
Description: The following assays were used to measure the effects of the compounds of the present invention: a) ATM cellular potency assay; b) PI3K cellular potency assay; c) mTOR cellular potency assay; d) ATR cellular potency assay. During the description of the assays, generally: • i. […] IC50 values were calculated using a smart fitting model in Genedata. […] Assay a): ATM Cellular Potency Rationale:
Most ATM molecules in the cell are rapidly phosphorylated on this site after doses of radiation as low as 0.5 Gy, and binding of a phosphospecific antibody is detectable after the introduction of only a few DNA double-strand breaks in the cell.
The rationale of the pATM assay is to identify inhibitors of ATM in cells. HT29 cells are incubated with test compounds for 1 hr prior to X-ray-irradiation. 1 h later the cells are fixed and stained for pATM (Ser1981). The fluorescence is read on the arrayscan imaging platform.
The following morning compounds of Formula (I) in 100% DMSO were added to assay plates by acoustic dispensing. After 1 h incubation at 37° C. and 5% CO2, plates (up to 6 at a time) were irradiated using the X-RAD 320 instrument (PXi) with equivalent to ˜600 cGy. Plates were returned to the incubator for a further 1 h. […] Then 20 μl of 0.1% Triton X100 in PBS was added and incubated for 20 minutes at r.t., to permeabalise cells. Then the plates were washed once with 50 μl/well PBS, using a Biotek EL405 plate washer.
After 1 h incubation at r.t., the plates were washed three times with 50 μl/well PBS, using a Biotek EL405 plate washer, and plates were sealed and kept in PBS at 4° C. until read. Plates were read using an ArrayScan VTI instrument, using an XF53 filter with 10× objective.

ATR kinase = biological target: T2, ATR kinase (Homo sapiens, UniProt Q13535); assay: Assay b) ATR cellular potency (pChk1 Ser345 in HT29 cells after 4NQO); conditions: HT29 cells, 4NQO, pChk1 Ser345; may be geometric mean of several tests; read-out: Assay b) ATR Cell IC50
T2 construct: measuring a decrease in phosphorylation of Chk1 (Ser 345) in HT29 cells; endogenous in cells; host or cells: HT29 cells (ECACC #85061109)
From the text: Assay b): ATR Cellular Potency
ATR is a PI 3-kinase-related kinase which phosphorylates multiple substrates on serine or threonine residues in response to DNA damage during or replication blocks. Chk1, a downstream protein kinase of ATR, plays a key role in DNA damage checkpoint control. Activation of Chk1 involves phosphorylation of Ser317 and Ser345 (the latter regarded as the preferential target for phosphorylation/activation by ATR).
The following morning compound of Formula (I) in 100% DMSO were added to assay plates by acoustic dispensing. After 1 h incubation at 37° C. and 5% CO2. 40 nl of 3 mM 4NQO in 100% DMSO was added to all wells by acoustic dispensing, except minimum control wells which were left untreated with 4NQO to generate a null response control. Plates were returned to the incubator for a further 1 h. […] Then 20 μl of 0.1% Triton X100 in PBS was added and incubated for 10 minutes at r.t., to permeabalise cells. Then the plates were washed once with 50 μl/well PBS, using a Biotek EL405 plate washer.
After 2 h incubation at r.t., the plates were washed three times with 50 μl/well PBS, using a Biotek EL405 plate washer, and plates were then sealed with black plate seals until read. Plates were read using an ArrayScan VTI instrument, using an XF53 filter with 10× objective.

mTOR = biological target: T3, mTOR (Homo sapiens, UniProt P42345); assay: Assay d) mTOR cellular potency (phospho-AKT Ser473 in MDA-MB-468 cells)
T3 construct: endogenous in cells; host or cells: MDA-MB-468 cells (ATCC HTB 132)
Description: Assay d): mTOR Cellular Potency
This assay was used to measure mTOR inhibition in cells. The aim of the phospho-AKT cell based mechanism of action assay using the Acumen Explorer is to identify inhibitors of either PI3Kα or mTOR-Rictor (Rapamycin insensitive companion of mTOR). This is measured by any decrease in the phosphorylation of the Akt protein at Ser473 (AKT lies downstream of PI3Kα in the signal transduction pathway) in the MDA-MB-468 cells following treatment with compound. Method Details:
MDA-MB-468 cells (human breast adenocarcinoma #ATCC HTB 132) were seeded at 1500 cells/well in 40 μl of DMEM containing 10% FBS and 1% glutamine into Greiner 384 well black flat-bottomed plates. Cell plates were incubated for 18 h in a 37° C. incubator before dosing with compounds of Formula (I) in 100% DMSO using acoustic dispensing. Compounds were dosed in a 12 point concentration range into a randomised plate map. Control wells were generated either by dosing of 100% DMSO (max signal) or addition of a reference compound (a PI3K-β inhibitor) that completely eliminated the pAKT signal (min control). Compounds were then tested by one of two assay protocols A or B:
Plates were incubated at 37° C. for 2 h; cells were then fixed by the addition of 10 μl of a 3.7% formaldehyde solution. After 30 minutes the plates were washed with PBS using a Tecan PW384 plate washer. Wells were blocked and cells permeabilised with the addition of 40 μl of PBS containing 0.5% Tween20 and 1% Marvel™ (dried milk powder) and incubated for 60 minutes at r.t. The plates were washed with PBS containing 0.5% (v/v) Tween20 and 20 μl rabbit anti-phospho AKT Ser473 (Cell Signalling Technologies, #3787) in same PBS-Tween+1% Marvel™ was added and incubated overnight at 4° C.
Plates were washed 3 times with PBS+0.05% Tween 20 using a Tecan PW384. 20 μl of secondary antibody Alexa Fluor 488 anti-Rabbit (Molecular Probes, #A11008) diluted in PBS+0.05% Tween20 containing 1% Marvel™ was added to each well and incubated for 1 h at r.t. Plates were washed three times as before then 20 μl PBS added to each well and plates sealed with a black plate sealer.
The plates were read on an Acumen plate reader as soon as possible, measuring green fluorescence after excitation with 488 nm laser. Using this system IC50 values were generated and quality of plates was determined by control wells. Reference compounds were run each time to monitor assay performance.
The cell plates were then incubated for 2 h at 37° C. before being fixed by the addition of 20 μl 3.7% formaldehyde in PBS/A (1.2% final concentration), followed by a 30 minute room temperature incubation, and then a 2× wash with 150 μl PBS/A using a BioTek ELx406 platewasher. Cells were permeabilised and blocked with 20 μl of assay buffer (0.1% Triton X-100 in PBS/A+1% BSA) for 1 h at room temperature, and then washed 1× with 50 μl PBS/A. Primary phospho-AKT (Ser473) D9E XP® rabbit monoclonal antibody (#4060, Cell Signaling Technology) was diluted 1:200 in assay buffer, 20 μl added per well, and plates were incubated at 4° C. overnight. Cell plates were washed 3× with 200 μl PBS/T, then 20 μl 1:750 dilution in assay buffer of Alexa Fluor® 488 goat anti-rabbit IgG secondary antibody (#A11008, Molecular Probes, Life Technologies), with a 1:5000 dilution of Hoechst 33342, was added per well. Following a 1 h incubation at room temperature, plates were washed 3× with 200 μl PBS/T, and 40 μl PBS w/o Ca, Mg and Na Bicarb (Gibco #14190-094) was added per well.
Stained cell plates were covered with black seals, and then read on the Cell Insight imaging platform (Thermo Scientific), with a 10× objective. The primary channel (Hoechst blue fluorescence 405 nM, BGRFR_386_23) was used to Autofocus and to count number of events (this provided information about cytotoxicity of the compounds tested). The secondary channel (Green 488 nM, BGRFR_485_20) measured pAKT staining. […]

PI3K-α = PI3K-α (Homo sapiens, UniProt P42336); assay: Assay c) PI3K cellular potency (phospho-Akt T308 ELISA in BT474 cells); conditions: BT474 cells, 2 h, phospho-AKT T308; may be geometric mean of several tests; read-out: Assay c) PI3Kα Cell IC50
From the text: Assay c): PI3K Cellular Potency
This assay was used to measure PI3K-α inhibition in cells. PDK1 was identified as the upstream activation loop kinase of protein kinase B (Akt 1), which is essential for the activation of PKB. Activation of the lipid kinase phosphoinositide 3 kinase (PI3K) is critical for the activation of PKB by PDK1.
Following ligand stimulation of receptor tyrosine kinases, PI3K is activated, which converts PIP2 to PIP3, which is bound by the PH domain of PDK1 resulting in recruitment of PDK1 to the plasma membrane where it phosphorylates AKT at Thr308 in the activation loop.
The aim of this cell-based mode of action assay is to identify compounds that inhibit PDK activity or recruitment of PDK1 to membrane by inhibiting PI3K activity. Phosphorylation of phospho-Akt (T308) in BT474c cells following treatment with compounds for 2 h is a direct measure of PDK1 and indirect measure of PI3K activity.
BT474 cells (human breast ductal carcinoma, ATCC HTB-20) were seeded into black 384 well plates (Costar, #3712) at a density of 5600 cells/well in DMEM containing 10% FBS and 1% glutamine and allowed to adhere overnight.
The following morning compounds in 100% DMSO were added to assay plates by acoustic dispensing. After a 2 h incubation at 37° C. and 5% CO2, the medium was aspirated and the cells were lysed with a buffer containing 25 mM Tris, 3 mM EDTA, 3 mM EGTA, 50 mM sodium fluoride, 2 mM Sodium orthovanadate, 0.27M sucrose, 10 mM β-glycerophosphate, 5 mM sodium pyrophosphate, 0.5% Triton X-100 and complete protease inhibitor cocktail tablets (Roche #04 693 116 001, used 1 tab per 50 ml lysis buffer).
After 20 minutes, the cell lysates were transferred into ELISA plates (Greiner #781077) which had been pre-coated with an anti total-AKT antibody in PBS buffer and non-specific binding was blocked with 1% BSA in PBS containing 0.05% Tween 20. Plates were incubated over night at 4° C. The next day the plates were washed with PBS buffer containing 0.05% Tween 20 and further incubated with a mouse monoclonal anti-phospho AKT T308 for 2 h. Plates were washed again as above before addition of a horse anti-mouse-HRP conjugated secondary antibody. Following a 2 h incubation at r.t., plates were washed and QuantaBlu substrate working solution (Thermo Scientific #15169, prepared according to provider's instructions) was added to each well. The developed fluorescent product was stopped after 60 minutes by addition of Stop solution to the wells. Plates were read using a Tecan Safire plate reader using 325 nm excitation and 420 nm emission wavelengths respectively. Except where specified, reagents contained in the Path Scan Phospho AKT (Thr308) sandwich ELISA kit from Cell Signalling (#7144) were used in this ELISA assay.

[1] = pAKT Ser473, Protocol B (*); read-out: Assay d) mTOR Cell IC50

T2 sequence (Q13535 whole entry): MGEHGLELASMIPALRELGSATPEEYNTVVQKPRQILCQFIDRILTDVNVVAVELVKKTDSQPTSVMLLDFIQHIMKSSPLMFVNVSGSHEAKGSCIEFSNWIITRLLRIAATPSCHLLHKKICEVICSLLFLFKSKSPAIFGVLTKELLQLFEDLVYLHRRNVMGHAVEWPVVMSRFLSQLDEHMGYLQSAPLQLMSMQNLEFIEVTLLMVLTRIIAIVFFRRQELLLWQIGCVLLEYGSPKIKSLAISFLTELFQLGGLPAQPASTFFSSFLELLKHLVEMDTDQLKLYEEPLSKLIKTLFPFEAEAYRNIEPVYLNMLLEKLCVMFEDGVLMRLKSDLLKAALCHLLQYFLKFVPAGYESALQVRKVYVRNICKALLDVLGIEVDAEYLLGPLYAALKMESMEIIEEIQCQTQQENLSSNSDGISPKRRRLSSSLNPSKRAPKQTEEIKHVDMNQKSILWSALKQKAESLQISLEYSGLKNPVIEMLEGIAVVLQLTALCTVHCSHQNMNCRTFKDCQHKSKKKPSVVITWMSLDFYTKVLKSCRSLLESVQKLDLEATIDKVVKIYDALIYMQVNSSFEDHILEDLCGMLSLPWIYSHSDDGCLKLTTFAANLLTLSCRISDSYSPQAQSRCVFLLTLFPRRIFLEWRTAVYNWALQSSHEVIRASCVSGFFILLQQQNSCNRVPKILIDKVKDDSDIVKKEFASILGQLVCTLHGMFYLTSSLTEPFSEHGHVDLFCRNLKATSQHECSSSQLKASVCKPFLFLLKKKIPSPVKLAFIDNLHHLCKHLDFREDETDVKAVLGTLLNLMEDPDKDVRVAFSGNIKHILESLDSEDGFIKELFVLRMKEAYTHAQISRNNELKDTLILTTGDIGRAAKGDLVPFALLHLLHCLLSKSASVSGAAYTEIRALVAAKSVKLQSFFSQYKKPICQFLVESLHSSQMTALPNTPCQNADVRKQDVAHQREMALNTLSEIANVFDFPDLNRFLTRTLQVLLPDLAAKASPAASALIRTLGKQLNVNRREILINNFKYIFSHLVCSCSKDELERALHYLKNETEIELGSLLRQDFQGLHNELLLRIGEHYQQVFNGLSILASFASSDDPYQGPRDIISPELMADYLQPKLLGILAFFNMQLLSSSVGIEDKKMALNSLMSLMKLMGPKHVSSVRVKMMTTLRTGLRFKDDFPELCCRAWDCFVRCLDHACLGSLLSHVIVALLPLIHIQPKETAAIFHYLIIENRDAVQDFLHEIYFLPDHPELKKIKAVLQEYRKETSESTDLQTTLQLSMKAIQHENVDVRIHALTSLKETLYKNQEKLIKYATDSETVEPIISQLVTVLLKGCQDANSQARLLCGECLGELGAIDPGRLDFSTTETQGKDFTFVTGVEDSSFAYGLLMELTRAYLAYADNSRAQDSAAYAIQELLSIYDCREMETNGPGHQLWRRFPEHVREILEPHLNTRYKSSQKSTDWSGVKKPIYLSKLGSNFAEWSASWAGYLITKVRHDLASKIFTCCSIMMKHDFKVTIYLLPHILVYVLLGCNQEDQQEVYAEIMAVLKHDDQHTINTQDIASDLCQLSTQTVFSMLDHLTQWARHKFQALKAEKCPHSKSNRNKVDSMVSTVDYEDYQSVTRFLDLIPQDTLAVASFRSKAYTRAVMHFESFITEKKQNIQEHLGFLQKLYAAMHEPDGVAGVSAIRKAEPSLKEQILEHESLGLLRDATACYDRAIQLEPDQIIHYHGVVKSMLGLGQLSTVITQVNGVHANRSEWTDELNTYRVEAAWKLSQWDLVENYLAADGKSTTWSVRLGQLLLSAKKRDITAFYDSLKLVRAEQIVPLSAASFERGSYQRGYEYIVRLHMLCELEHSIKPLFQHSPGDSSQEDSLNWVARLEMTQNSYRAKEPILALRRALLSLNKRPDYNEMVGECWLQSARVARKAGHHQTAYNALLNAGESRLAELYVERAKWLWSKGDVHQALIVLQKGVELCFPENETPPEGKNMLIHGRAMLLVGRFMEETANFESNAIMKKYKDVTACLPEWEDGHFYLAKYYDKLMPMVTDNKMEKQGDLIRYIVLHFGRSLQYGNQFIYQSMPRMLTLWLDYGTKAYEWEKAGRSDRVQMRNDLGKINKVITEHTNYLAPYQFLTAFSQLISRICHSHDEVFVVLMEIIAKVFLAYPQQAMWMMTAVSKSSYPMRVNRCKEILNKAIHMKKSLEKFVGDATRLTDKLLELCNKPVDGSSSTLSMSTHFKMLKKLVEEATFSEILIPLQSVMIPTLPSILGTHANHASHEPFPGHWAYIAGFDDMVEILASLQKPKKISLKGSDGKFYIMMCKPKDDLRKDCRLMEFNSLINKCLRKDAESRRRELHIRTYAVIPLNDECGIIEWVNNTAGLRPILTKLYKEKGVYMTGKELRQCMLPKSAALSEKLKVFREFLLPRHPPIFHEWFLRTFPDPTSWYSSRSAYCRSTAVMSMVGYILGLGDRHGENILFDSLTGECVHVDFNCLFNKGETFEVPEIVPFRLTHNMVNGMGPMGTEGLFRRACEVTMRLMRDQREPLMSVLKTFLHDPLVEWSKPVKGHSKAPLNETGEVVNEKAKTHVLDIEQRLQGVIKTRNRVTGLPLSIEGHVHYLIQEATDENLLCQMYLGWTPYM
T2 sequence (Q8WXE1 whole entry partner): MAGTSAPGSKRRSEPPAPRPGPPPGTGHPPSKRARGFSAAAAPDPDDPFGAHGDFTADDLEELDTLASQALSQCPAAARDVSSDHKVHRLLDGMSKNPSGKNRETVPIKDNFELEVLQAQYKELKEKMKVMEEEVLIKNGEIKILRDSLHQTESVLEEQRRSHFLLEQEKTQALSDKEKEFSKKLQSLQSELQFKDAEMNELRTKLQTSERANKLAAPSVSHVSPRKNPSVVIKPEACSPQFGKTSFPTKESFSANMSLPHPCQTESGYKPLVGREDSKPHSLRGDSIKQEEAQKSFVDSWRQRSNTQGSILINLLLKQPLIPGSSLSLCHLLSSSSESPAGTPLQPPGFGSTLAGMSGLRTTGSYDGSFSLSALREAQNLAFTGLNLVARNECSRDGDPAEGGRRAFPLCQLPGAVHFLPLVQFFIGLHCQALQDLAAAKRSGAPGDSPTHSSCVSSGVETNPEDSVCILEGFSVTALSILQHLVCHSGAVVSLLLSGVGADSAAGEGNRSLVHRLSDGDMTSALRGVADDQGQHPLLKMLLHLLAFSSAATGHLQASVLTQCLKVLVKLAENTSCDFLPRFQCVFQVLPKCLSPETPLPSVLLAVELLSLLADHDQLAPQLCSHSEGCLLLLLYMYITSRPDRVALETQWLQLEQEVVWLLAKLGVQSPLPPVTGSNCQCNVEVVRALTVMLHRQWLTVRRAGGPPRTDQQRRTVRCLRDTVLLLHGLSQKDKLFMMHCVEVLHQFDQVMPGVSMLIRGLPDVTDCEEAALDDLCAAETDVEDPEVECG
Sequence of PI3K-α (P42336 whole entry): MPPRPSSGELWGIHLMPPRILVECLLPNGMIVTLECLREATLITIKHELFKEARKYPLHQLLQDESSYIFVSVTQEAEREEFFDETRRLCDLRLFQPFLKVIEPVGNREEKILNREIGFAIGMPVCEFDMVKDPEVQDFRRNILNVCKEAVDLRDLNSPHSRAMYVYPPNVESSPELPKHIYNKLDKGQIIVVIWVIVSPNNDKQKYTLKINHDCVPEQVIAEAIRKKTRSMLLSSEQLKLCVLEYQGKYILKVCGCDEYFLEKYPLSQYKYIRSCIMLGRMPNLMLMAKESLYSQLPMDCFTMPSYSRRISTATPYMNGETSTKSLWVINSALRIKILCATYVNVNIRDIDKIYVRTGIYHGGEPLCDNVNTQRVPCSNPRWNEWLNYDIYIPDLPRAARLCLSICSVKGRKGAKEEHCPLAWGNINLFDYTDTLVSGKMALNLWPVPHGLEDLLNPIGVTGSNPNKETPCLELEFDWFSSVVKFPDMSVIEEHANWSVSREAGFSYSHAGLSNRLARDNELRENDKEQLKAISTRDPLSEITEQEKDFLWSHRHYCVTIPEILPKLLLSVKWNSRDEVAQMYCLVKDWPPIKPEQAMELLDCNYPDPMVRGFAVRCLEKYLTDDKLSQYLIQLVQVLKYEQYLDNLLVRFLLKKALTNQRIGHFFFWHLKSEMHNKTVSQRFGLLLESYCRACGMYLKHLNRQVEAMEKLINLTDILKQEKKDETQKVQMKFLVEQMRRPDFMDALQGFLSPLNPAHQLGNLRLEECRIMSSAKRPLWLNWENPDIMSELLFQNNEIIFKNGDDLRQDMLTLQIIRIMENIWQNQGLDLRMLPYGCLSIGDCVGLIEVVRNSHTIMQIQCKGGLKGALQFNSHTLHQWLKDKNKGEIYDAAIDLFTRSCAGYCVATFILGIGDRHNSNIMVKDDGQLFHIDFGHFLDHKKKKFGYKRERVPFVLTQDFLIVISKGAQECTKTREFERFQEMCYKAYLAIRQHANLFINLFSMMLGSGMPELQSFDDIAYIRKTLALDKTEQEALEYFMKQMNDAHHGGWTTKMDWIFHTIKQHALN

SMILES	IC50 (ATM kinase)	IC50 (ATR kinase)	IC50 (mTOR; pAKT Ser473, Protocol A (§); read-out: Assay d) mTOR Cell IC50)	IC50 (mTOR; [1])	IC50 (PI3K-α)
CC(C)n1c(=O)[nH]c2cnc3cc(F)c(-c4ccc(OCCCN(C)C)nc4)cc3c21 [Example 17, 8-[6-[3-(Dimethylamino)propoxy]-3-pyridyl]-7-fluoro-1-isopropyl-3H-imidazo[4,5-c]quinolin-2-one]	4.61 nM	> 30000 nM		> 10000 nM	
CC(C)n1c(=O)n(C)c2cnc3ccc(-c4ccc(OCCCN5CCCCC5)nc4)cc3c21 [Example 5, 1-Isopropyl-3-methyl-8-[6-[3-(l-piperidyl)propoxy]-3-pyridyl]imidazo[4,5-c]quinolin-2-one]				6760 nM	1240 nM
CC(C)n1c(=O)n(C)c2cnc3ccc(-c4ccc(OCCCN5CCC5)nc4F)cc3c21 [Example 15, 8-[6-[3-(azetidin-1-yl)propoxy]-2-fluoro-3-pyridyl]-1-isopropyl-3-methyl-imidazo[4,5-c]quinolin-2-one]	2.14 nM	> 30000 nM		> 300 nM	
CC(C)n1c(=O)n(C)c2cnc3cc(F)c(-c4ccc(OCCCN(C)C)nc4)cc3c21 [Example 1, 8-[6-[3-(Dimethylamino)propoxy]-3-pyridyl]-7-fluoro-1-isopropyl-3-methyl-imidazo[4,5-c]quinolin-2-one]		> 30000 nM		> 30000 nM	13400 nM

Continued, values first:

IC50 (ATM kinase)	IC50 (ATR kinase)	IC50 (mTOR; pAKT Ser473, Protocol A (§); read-out: Assay d) mTOR Cell IC50)	IC50 (mTOR; [1])	IC50 (PI3K-α)	SMILES
2.28 nM	> 30000 nM	23600 nM			CC(C)n1c(=O)n(C)c2cnc3cc(F)c(-c4ccc(OCCCN(C)C)nc4F)cc3c21 [Example 11, 8-[6-[3-(dimethylamino)propoxy]-2-fluoro-3-pyridyl]-7-fluoro-1-isopropyl-3-methyl-imidazo[4,5-c]quinolin-2-one]
135 nM	55.3 nM				Cn1c(=O)n(C2CC2)c2c3cc(-c4cnc5[nH]ccc5c4)ccc3ncc21 [CN102399218A Compound 62, reference compound]
